Test results reported in patent US5321039A, “Method of inducing a histamine agonist action on H2 receptors” (Societe Civile Bioprojet, priority 1990, dated 1994).
pEC50: −log10 of the molar value.

Tests used:
[1] = test system: histamine H3 receptor; conditions: EP-A-0 420 396; cited from earlier work
[2] = biological target: T1, H3 receptor (Rattus norvegicus, UniProt Q9QYN8); experiment: inhibition of liberation and synthesis of endogenous histamine from depolarized brain sections (H3 agonism); assay type: cell-based; conditions: for potency relative to histamine (times more powerful): H3 agonist
T1 construct: liberation and synthesis of endogenous histamine from depolarized brain sections; from tissue; host or cells: brain sections (slices)
T1 sequence (Q9QYN8 whole entry): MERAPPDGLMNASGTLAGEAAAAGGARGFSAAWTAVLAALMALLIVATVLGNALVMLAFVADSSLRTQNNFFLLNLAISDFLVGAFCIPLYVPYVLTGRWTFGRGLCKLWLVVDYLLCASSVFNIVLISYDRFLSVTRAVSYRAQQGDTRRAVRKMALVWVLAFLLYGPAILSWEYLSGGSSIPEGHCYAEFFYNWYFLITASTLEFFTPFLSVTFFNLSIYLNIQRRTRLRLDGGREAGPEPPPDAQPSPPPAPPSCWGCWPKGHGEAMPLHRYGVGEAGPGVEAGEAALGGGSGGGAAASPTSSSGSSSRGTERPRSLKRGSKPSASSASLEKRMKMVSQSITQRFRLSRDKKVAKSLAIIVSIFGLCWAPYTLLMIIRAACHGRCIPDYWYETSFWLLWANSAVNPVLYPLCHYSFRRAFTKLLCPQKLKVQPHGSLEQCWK

[3] = test system: histamine synthesis in the brain of rats; experiment: inhibition of histamine synthesis in vivo (brain, peripheral organs)
[4] = test system: histamine H2 receptor; conditions: Sterk et al.; cited from earlier work
[5] = test system: secretion of gastric acid which is stimulated by histamine; conditions: opposes action of histamine; Ganellin; cited from earlier work

pEC50 ([2]; read-out: EC50 as H3 agonist) | Compound | H3 agonist potency and selectivity in words [1] | type of agonism on the H3 receptor [2] | potency relative to histamine (times more powerful) [2] | H3 agonist activity in vivo ([3]; in vivo test not specified) | concentration for H3 relative to that necessary for engagement of the H2 receptor (times lower) ([2]; H3 versus H2) | concentration stimulating the H3 receptor ([2]; depolarized brain sections) | concentration stimulating the H2 receptor [4] | partial agonist efficacy at histamine H2 receptor [4] | 50% inhibiting dose on rat gastric secretion [5] | crossing of the blood-brain barrier ([3]; inferred from brain effect at oral 3 mg/kg in rats) | inhibition of histamine synthesis in peripheral organs such as the lungs ([3]; peripheral organs, lungs) | inhibition of histamine synthesis in the brain ([3]; rats, oral dose of 3 mg/kg)
– | N=C(N)CCCc1c[nH]cn1 [Compound III, 4-(4(5)-imidazolyl) butyramidine] | highly potent selective histamine H3 -agonists | – | – | – | – | – | – | – | – | – | – | –
8.00 | CN=C(N)SCCc1c[nH]cn1 [Compound II] | – | full and comparatively powerful | about 6 times | active in vivo | – | – | – | – | – | – | – | –
– | N=C(N)SCCc1cnc[nH]1 [Compound I, S-[2-(4(5)-imidazolyl)-ethyl] isothiourea] | highly potent selective histamine H3 -agonists | full histamine agonist | 62 times | – | about 100,000 times | about 1 nanomolar | about 0.1 mM | 50% | about 200 μmoles/kg | adequately crosses the blood-brain barrier | inhibits at a very low dose | maximum inhibition
